Patent US11168074B2, “Potassium channel inhibitors” (ACESION PHARMA ApS, priority 2017, dated 2021)

Target: T1, human SK3 channel (hKCa2.3) (Homo sapiens, UniProt Q9UGI6)
T1 construct: expressed in transfected cells
Test: Automated patch clamping (QPatch 16 HT whole cell patch-clamp)
Assay type: cell-based
Conditions: HEK-293 cells stably expressing hKCa2.3; free calcium 400 nM; effects normalized to N-methyl bicuculline; read-out: IC50 in the Automated patch clamping assay (concentration needed to inhibit half of the SK channel activity)
Method: Automated whole cell patch-clamp recordings were performed using a QPatch 16 HT system and single-hole Qplates (Biolin Scientific, Sophion, Denmark) on HEK-293 cells stably expressing the human SK3 channel (hKCa2.3). Cells were cultured and prepared for experiments using normal cell culturing procedures. A total of 4-5 million cells were used per experiment. The Qpatch automatically generates giga sealing, whole-cell formation, compound application and recording of current. hKCa2.3 currents were recorded in symmetrical K^+ solutions, with an intracellular solution consisting of in mM: KCl 108; KOH/EGTA (ethylene glycol-bis(2-aminoethylether)-N,N,N′,N′-tetraacetic acid) 31.25/10; CaCl2 8.1; MgCl2 1.2; HEPES (2-[4-(2-hydroxyethyl)piperazin-1-yl]ethanesulfonic acid) 10; KOH 15, pH adjusted to pH=7.2 with HCl. The free calcium concentration was calculated to 400 nM. The extracellular solution consisted of in mM: KCl 150; CaCl2 0.1; MgCl2 3; HEPES 10; Glucose 10, pH=7.4 with KOH. The cells were held at 0 mV and hKCa2.3 currents were elicited by a linear voltage ramp from −80 mV to +80 mV (200 ms in duration) applied every 5th second. The compound application protocol consisted of 12 recording periods lasting from 50-200 s: 1) Baseline recordings in extracellular solution; 2) Application of the positive control N-methyl bicuculline (100 μM), which is characterized by full efficacy, fast on- and off-rate; 3-4) Wash-out; 5-9) Increasing concentrations of test compound to establish an IC50 value; 10-11) Wash-out; 12) positive control with compound NS8593 (N-[(1R)-1,2,3,4-tetrahydro-1-naphthalenyl]-1H-benzimidazol-2-amine) (1 μM). Data were sampled at 10 kHz, 4th order Bessel filter, cut-off frequency 3 kHz. Currents were compensated for run-down. Potency was quantified as the concentration needed to inhibit half of the SK channel activity and reported as an IC50 value. All effects of compounds of the present invention as tested were normalized to the observed inhibitory effect of N-methyl bicuculline.

IC50 [µM]	Structure (SMILES)
< 10	CCC(=O)NCC(Nc1nc2ccccc2[nH]1)c1cccc(C(F)(F)F)c1 (stereo not drawn) [Example 10, N-{2-[(1H-1,3-benzodiazol-2-yl)amino]-2-[3-(trifluoromethyl)phenyl]ethyl}propanamide]
< 10	COCC(=O)NC[C@H](Nc1nc2ccccc2[nH]1)c1cccc(C(F)(F)F)c1 [Example 12, N-[(2R)-2-[(1H-1,3-benzodiazol-2-yl)amino]-2-[3-(trifluoromethyl)phenyl]ethyl]-2-methoxyacetamide]
< 10	O=C(NCC(Nc1nc2ccccc2[nH]1)c1cccc(C(F)(F)F)c1)C1CCC1 (stereo not drawn) [Example 2, N-{2-[(1H-1,3-benzodiazol-2-yl)amino]-2-[3-(trifluoromethyl)phenyl]ethyl}cyclobutanecarboxamide]
< 10	CC(=O)NCCC(Nc1nc2ccccc2[nH]1)c1cccc(OC(F)(F)F)c1 (stereo not drawn) [Example 22, N-{3-[(1H-1,3-benzodiazol-2-yl)amino]-3-[3-(trifluoromethoxy)phenyl]propyl}acetamide]
< 10	CCC(=O)NCC(Nc1nc2ccccc2[nH]1)c1cccc(C(F)(F)F)c1 (single isomer, unassigned) [Example 10a, N-{2-[(1H-1,3-benzodiazol-2-yl)amino]-2-[3-(trifluoromethyl)phenyl]ethyl}propanamide]
< 10	O=C(NCC(Nc1nc2ccccc2[nH]1)c1cccc(C(F)(F)F)c1)c1ccncn1 (stereo not drawn) [Example 5, N-{2-[(1H-1,3-benzodiazol-2-yl)amino]-2-[3-(trifluoromethyl)phenyl]ethyl}pyrimidine-4-carboxamide; trifluoroacetic acid]
< 10	CC(=O)NCCCC(Nc1nc2ccccc2[nH]1)c1cccc(C(F)(F)F)c1 (stereo not drawn) [Example 19, N-{4-[(1H-1,3-benzodiazol-2-yl)amino]-4-[3-(trifluoromethyl)phenyl]butyl}acetamide]
< 10	CC(=O)N(C)CCC(Nc1nc2ccccc2[nH]1)c1cccc(C(F)(F)F)c1 (single isomer, unassigned; (-)) [Example 18a, (−)-N-{3-[(1H-1,3-benzodiazol-2-yl)amino]-3-[3-(trifluoromethyl)phenyl]propyl}-N-methylacetamide]
< 10	CC(=O)NCCC(Nc1nc2ccccc2[nH]1)c1cccc(C(F)(F)F)c1 (stereo not drawn) [Example 14, N-{3-[(1H-1,3-benzodiazol-2-yl)amino]-3-[3-(trifluoromethyl)phenyl]propyl}acetamide]
< 10	N#Cc1cccc(C(=O)NCC(Nc2nc3ccccc3[nH]2)c2cccc(C(F)(F)F)c2)c1 (stereo not drawn) [Example 7, N-{2-[(1H-1,3-benzodiazol-2-yl)amino]-2-[3-(trifluoromethyl)phenyl]ethyl}-3-cyanobenzamide]
< 10	CC(=O)NCCC(Nc1nc2ccccc2[nH]1)c1cccc(OC(F)(F)F)c1 (single isomer, unassigned; (-)) [Example 22a, (−)-N-{3-[(1H-1,3-benzodiazol-2-yl)amino]-3-[3-(trifluoromethoxy)phenyl]propyl}acetamide]
< 10	O=C(NCC(Nc1nc2ccccc2[nH]1)c1cccc(C(F)(F)F)c1)C1CCOCC1 (stereo not drawn) [Example 8, N-{2-[(1H-1,3-benzodiazol-2-yl)amino]-2-[3-(trifluoromethyl)phenyl]ethyl}oxane-4-carboxamide]
< 10	O=C(CO)NC[C@H](Nc1nc2ccccc2[nH]1)c1cccc(C(F)(F)F)c1 [Example 13, N-[(2R)-2-[(1H-1,3-benzodiazol-2-yl)amino]-2-[3-(trifluoromethyl)phenyl]ethyl]-2-hydroxyacetamide]
< 10	CC(=O)NCCCC(Nc1nc2cc(F)ccc2[nH]1)c1cccc(C(F)(F)F)c1 (stereo not drawn) [Example 20, N-{4-[(5-fluoro-1H-1,3-benzodiazol-2-yl)amino]-4-[3-(trifluoromethyl)phenyl]butyl}acetamide]
< 10	O=C(NCCC(Nc1nc2ccccc2[nH]1)c1cccc(C(F)(F)F)c1)C(F)(F)F (stereo not drawn) [Example 16, N-{3-[(1H-1,3-benzodiazol-2-yl)amino]-3-[3-(trifluoromethyl)phenyl]propyl}-2,2,2-trifluoroacetamide; formic acid]
< 10	O=C(NCC(Nc1nc2ccccc2[nH]1)c1cccc(C(F)(F)F)c1)c1cccc(F)c1 (stereo not drawn) [Example 9, N-{2-[(1H-1,3-benzodiazol-2-yl)amino]-2-[3-(trifluoromethyl)phenyl]ethyl}-3-fluorobenzamide]
< 10	O=C(NCC(Nc1nc2ccccc2[nH]1)c1cccc(C(F)(F)F)c1)C1CC1 (stereo not drawn) [Example 3, N-{2-[(1H-1,3-benzodiazol-2-yl)amino]-2-[3-(trifluoromethyl)phenyl]ethyl}cyclopropanecarboxamide]
< 10	O=C(NCCC(Nc1nc2c(CO)cccc2[nH]1)c1cccc(C(F)(F)F)c1)c1ccon1 (stereo not drawn) [Example 15, N-(3-{[4-(hydroxymethyl)-1H-1,3-benzodiazol-2-yl]amino}-3-[3-(trifluoromethyl)phenyl]propyl)-1,2-oxazole-3-carboxamide]
< 10	O=C(NCC(Nc1nc2ccccc2[nH]1)c1cccc(C(F)(F)F)c1)c1ccon1 (stereo not drawn) [Example 1, N-{2-[(1H-1,3-benzodiazol-2-yl)amino]-2-[3-(trifluoromethyl)phenyl]ethyl}-1,2-oxazole-3-carboxamide]
< 10	CC(=O)NCCC(C)(Nc1nc2ccccc2[nH]1)c1cccc(C(F)(F)F)c1 (stereo not drawn) [Example 21, N-{3-[(1H-1,3-benzodiazol-2-yl)amino]-3-[3-(trifluoromethyl)phenyl]butyl}acetamide]
< 10	CC(=O)NCCCC(Nc1nc2ccccc2[nH]1)c1cccc(C(F)(F)F)c1 (single isomer, unassigned; (-)) [Example 19a, (−)-N-{4-[(1H-1,3-benzodiazol-2-yl)amino]-4-[3-(trifluoromethyl)phenyl]butyl}acetamide]
< 10	O=C(NCC(Nc1nc2ccccc2[nH]1)c1cccc(C(F)(F)F)c1)c1ncon1 (stereo not drawn) [Example 4, N-{2-[(1H-1,3-benzodiazol-2-yl)amino]-2-[3-(trifluoromethyl)phenyl]ethyl}-1,2,4-oxadiazole-3-carboxamide; trifluoroacetic acid]
< 10	CC(=O)N(C)CCC(Nc1nc2ccccc2[nH]1)c1cccc(C(F)(F)F)c1 (stereo not drawn) [Example 18, N-{3-[(1H-1,3-benzodiazol-2-yl)amino]-3-[3-(trifluoromethyl)phenyl]propyl}-N-methylacetamide]
< 10	O=C1CCCN1CC(Nc1nc2ccccc2[nH]1)c1cccc(C(F)(F)F)c1 (stereo not drawn) [Example 11, 1-{2-[(1H-1,3-benzodiazol-2-yl)amino]-2-[3-(trifluoromethyl)phenyl]ethyl}pyrrolidin-2-one]
< 10	CC(=O)NCCC(Nc1nc2ccccc2[nH]1)c1cccc(C(F)(F)F)c1 (single isomer, unassigned; (-)) [Example 14a, (−)-N-{3-[(1H-1,3-benzodiazol-2-yl)amino]-3-[3-(trifluoromethyl)phenyl]propyl}acetamide]
< 10	O=C(NCC(Nc1nc2ccccc2[nH]1)c1cccc(C(F)(F)F)c1)c1ccccn1 (stereo not drawn) [Example 6, N-{2-[(1H-1,3-benzodiazol-2-yl)amino]-2-[3-(trifluoromethyl)phenyl]ethyl}pyridine-2-carboxamide; trifluoroacetic acid]
< 10	CC(=O)NC(C)CC(Nc1nc2ccccc2[nH]1)c1cccc(C(F)(F)F)c1 (stereo not drawn) [Example 17, N-{4-[(1H-1,3-benzodiazol-2-yl)amino]-4-[3-(trifluoromethyl)phenyl]butan-2-yl}acetamide; trifluoroacetic acid]
